48 compounds from patent US9624217B2, “Dihydropyrrolopyridine inhibitors of ROR-gamma” (Vitae Pharmaceuticals, Inc., priority 2014, dated 2017) can be followed below.

Each structure is given as a SMILES string. pIC50, pKi: −log10 of the molar value.

In one test the target is full-length RORγt (Homo sapiens (Human), UniProt P51449). Nature of the test: RORγt 5×RORE Assay in Jurkat Cells (Assay 2). Type of test: cell-based. The settings on record: secreted Nanoluc luciferase 5×RORE reporter, 16-18 hrs, read-out: RORγt5X IC50 Range. The procedure: [formula] RORγt 5×RORE Assay in Jurkat Cells (Assay 2)
full-length RORγt, sequence (P51449 other isoform, or with tags, fused parts or gaps): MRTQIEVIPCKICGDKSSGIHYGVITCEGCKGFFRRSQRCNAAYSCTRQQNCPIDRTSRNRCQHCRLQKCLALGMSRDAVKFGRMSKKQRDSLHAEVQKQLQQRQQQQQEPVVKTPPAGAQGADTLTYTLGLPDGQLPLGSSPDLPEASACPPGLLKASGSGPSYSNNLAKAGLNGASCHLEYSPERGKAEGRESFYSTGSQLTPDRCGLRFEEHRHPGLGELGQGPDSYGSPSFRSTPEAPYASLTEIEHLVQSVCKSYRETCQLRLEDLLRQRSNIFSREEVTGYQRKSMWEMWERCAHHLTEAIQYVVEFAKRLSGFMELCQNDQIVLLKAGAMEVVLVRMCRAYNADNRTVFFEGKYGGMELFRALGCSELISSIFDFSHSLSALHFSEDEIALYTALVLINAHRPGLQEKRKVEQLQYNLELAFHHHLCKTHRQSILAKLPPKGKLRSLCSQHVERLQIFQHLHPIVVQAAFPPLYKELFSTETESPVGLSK
Compounds of the present invention were tested for RORγ inverse agonist activity in a cell-based, transcriptional activity assay. […] (Promega, Cat. #N1021) using KpnI and HindIII restriction sites. […] Luciferase activity in the conditioned supernatants was determined with NanoGlo® assay reagents (Promega, Cat. #N1130).

In test [1] the target is recombinant RORγ Ligand Binding Domain (LBD) (Homo sapiens (Human), UniProt P51449). Nature of the test: Radio-Ligand RORγ Binding Assay (Assay 1). The settings on record: SPA competition with 25-hydroxy [26,27-3H]-cholesterol, cell-free; read-out: RORγ Binding Ki Range. The procedure: Radio-Ligand RORγ Binding Assay (Assay 1)
recombinant RORγ Ligand Binding Domain (LBD), sequence (P51449 269-508): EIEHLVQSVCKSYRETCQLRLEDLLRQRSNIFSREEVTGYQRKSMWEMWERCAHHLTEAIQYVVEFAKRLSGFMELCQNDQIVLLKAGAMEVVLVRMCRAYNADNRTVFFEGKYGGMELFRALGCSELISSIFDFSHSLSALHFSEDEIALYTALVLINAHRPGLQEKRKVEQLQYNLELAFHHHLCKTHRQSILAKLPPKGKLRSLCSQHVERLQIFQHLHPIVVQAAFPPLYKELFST
Compounds of the present invention were tested for ability to bind to RORγ in a cell-free competition assay with commercially available radio-ligand (RL), 25-hydroxy [26,27-^3H]-cholesterol (PerkinElmer, Cat. #NET674250UC), for a ligand binding site on a recombinant RORγ Ligand Binding Domain (LBD) protein expressed as a 6×His-Glutathione-S-Transferase (GST) fusion. […] The plate was shaken at 700 rpm for 20 min and incubated for 10 min at rt, after which 40 μL of poly-Lys YSi SPA beads (PerkinElmer, Cat. #RPNQ0010) were added to achieve 50 μg of the beads per well. The plate was incubated on an orbital shaker for 20 min and then for 10 min without agitation at rt. SPA signal for tritium beta radiation was registered on PerkinElmer Microbeta plate reader. […] The percent inhibition vs. concentration data were fit into a four-parameter model, and IC50 values were calculated from the fit as the concentrations corresponding to the inflection points on the dose-response curves.

`CCS(=O)(=O)c1ccc(CNC(=O)c2cnc3c(c2)CN(Cc2ccc(Cl)cc2)[C@H]3C(C)C)cc1` [Compound 3]: the pIC50 on full-length RORγt was greater than 7.00. Besides, in test [1], the pKi was greater than 7.00.
Turning to `CCS(=O)(=O)c1ccc(CNC(=O)c2cnc3c(c2)CN(Cc2ccc(C#N)cc2)[C@H]3C(C)C)cc1` [Compound 4], the pIC50 at full-length RORγt is greater than 7.00. Also, the pKi in test [1] was greater than 7.00.
In the case of `CCS(=O)(=O)c1ccc(CNC(=O)c2cnc3c(c2)CN(Cc2ccc(OC(F)F)cc2)[C@H]3C(C)C)cc1` [Compound 5], the pIC50 on full-length RORγt is greater than 7.00. In test [1], the pKi is greater than 7.00.
With `CCS(=O)(=O)c1ccc(CNC(=O)c2cnc3c(c2)CN(Cc2ccc(F)cc2)[C@H]3C(C)C)cc1` [Compound 7], at full-length RORγt, the pIC50 was 6.00 to 7.00. The pKi in test [1] is greater than 7.00.
`CCS(=O)(=O)c1ccc(CNC(=O)c2cnc3c(c2)CN(c2ncc(C(F)(F)F)cn2)[C@H]3C(C)C)cc1` [Compound 8]: the negative-log IC50 (pIC50) at full-length RORγt was less than 6.00. For the same compound, the pKi in test [1] was greater than 7.00.
In the case of `CCOC(=O)c1cnc(N2Cc3cc(C(=O)NCc4ccc(S(=O)(=O)CC)cc4)cnc3[C@@H]2C(C)C)nc1C(F)(F)F` [Compound 10], the negative-log IC50 (pIC50) on full-length RORγt was less than 6.00. Moreover, the pKi in test [1] was greater than 7.00.
Take `CCS(=O)(=O)c1ccc(CNC(=O)c2cnc3c(c2)C(=O)N(Cc2ccc(Cl)cc2)C3(O)C(C)C)cc1` (centres unmarked) [Compound 11]: the negative logarithm of the IC50 (pIC50) on full-length RORγt is less than 6.00. Also, the pKi in test [1] was 6.00 to 7.00.
`CCS(=O)(=O)c1ccc(CNC(=O)c2cnc3c(c2)CN(C(=O)OC(C)(C)C)[C@H]3C(C)C)cc1` [Compound 15, tert-butyl (S)-3-((4-(ethylsulfonyl)benzyl)carbamoyl)-7-isopropyl-5,7-dihydro-6H-pyrrolo[3,4-b]pyridine-6-carboxylate]: the pIC50 on full-length RORγt was less than 6.00.
As to `CC(C)[C@H]1c2ncc(C(=O)NCc3ccc(S(C)(=O)=O)cc3)cc2CN1Cc1ccc(Cl)cc1` [Compound 17], at full-length RORγt, the pIC50 was greater than 7.00. The pKi in test [1] is greater than 7.00.
Consider `CC(C)[C@H]1c2ncc(C(=O)NCc3ccc(S(C)(=O)=O)cc3)cc2CN1Cc1ccc(C#N)cc1` [Compound 21], for which the pIC50 at full-length RORγt is 6.00 to 7.00. For the same compound, the pKi in test [1] is 6.00 to 7.00.
Regarding `CC(C)[C@H]1c2ncc(C(=O)NCc3ccc(S(C)(=O)=O)cc3)cc2CN1Cc1ccc(C(F)(F)F)cc1` [Compound 22], the pIC50 on full-length RORγt is greater than 7.00. In addition, the negative logarithm of the Ki (pKi) in test [1] was greater than 7.00.
In the case of `CC(C)[C@H]1c2ncc(C(=O)NCc3ccc(S(C)(=O)=O)cc3)cc2CN1Cc1ccc(F)cc1` [Compound 24], at full-length RORγt, the pIC50 is less than 6.00. The pKi in test [1] was greater than 7.00.
As for `CCS(=O)(=O)c1ccc(CNC(=O)c2cnc3c(c2)CN(C(=O)OCc2ccc(Cl)cc2)[C@H]3C(C)C)cc1` [Compound 25], the negative-log IC50 (pIC50) on full-length RORγt is less than 6.00. In test [1], the negative-log Ki (pKi) was greater than 7.00.
Turning to `CCS(=O)(=O)c1ccc(CNC(=O)c2cnc3c(c2)[C@@H](C)N(Cc2ccc(Cl)cc2)[C@H]3C(C)C)cc1` [Compound 28], at full-length RORγt, the pIC50 was greater than 7.00. The pKi in test [1] was greater than 7.00.
As for `CCS(=O)(=O)c1ccc(CNC(=O)c2cnc3c(c2)[C@H](C)N(Cc2ccc(Cl)cc2)[C@H]3C(C)C)cc1` [Compound 29], the pIC50 on full-length RORγt was greater than 7.00. The pKi in test [1] is greater than 7.00.
`CCS(=O)(=O)c1ccc(CNC(=O)c2cnc3c(c2)[C@@H](C)N(Cc2ccc(C(F)(F)F)cc2)[C@H]3C(C)C)cc1` [Compound 30]: the pIC50 at full-length RORγt is greater than 7.00. In addition, the pKi in test [1] was greater than 7.00.
Take `CCS(=O)(=O)c1ccc(CNC(=O)c2cnc3c(c2)[C@H](C)N(Cc2ccc(C(F)(F)F)cc2)[C@H]3C(C)C)cc1` [Compound 31]: at full-length RORγt, the pIC50 is greater than 7.00. In addition, in test [1], the negative logarithm of the Ki (pKi) was greater than 7.00.
With `CCS(=O)(=O)c1ccc(CNC(=O)c2cnc3c(c2)CN(Cc2ccc(C(F)(F)F)cc2)[C@H]3C(C)C)nc1` [Compound 33], on full-length RORγt, the pIC50 was greater than 7.00. The pKi in test [1] is greater than 7.00.
Take `CCS(=O)(=O)c1ccc(CNC(=O)c2cnc3c(c2)CN(Cc2ccc(Cl)cc2)[C@H]3C(C)C)nc1` [Compound 34]: the pIC50 at full-length RORγt was greater than 7.00. Further, in test [1], the negative-log Ki (pKi) is greater than 7.00.
As to `CCS(=O)(=O)c1ccc(CNC(=O)c2cnc3c(c2)CN(Cc2ccc(C#N)cc2)[C@H]3C(C)C)nc1` [Compound 35], the pIC50 on full-length RORγt was 6.00 to 7.00. Moreover, the pKi in test [1] was greater than 7.00.
In the case of `CCS(=O)(=O)c1ccc(CNC(=O)c2cnc3c(c2)CN(CC2CCC(F)(F)CC2)[C@H]3C(C)C)cc1` [Compound 42], the pIC50 at full-length RORγt is less than 6.00. Moreover, in test [1], the pKi is greater than 7.00.
As for `CCS(=O)(=O)c1ccc(CC(=O)Nc2cnc3c(c2)CN(Cc2ccc(Cl)cc2)[C@H]3C(C)C)cc1` [Compound 56], the pIC50 at full-length RORγt was 6.00 to 7.00.
As to `CC(C)[C@H]1c2ncc(C(=O)NCC(F)F)cc2CN1Cc1ccc(C(F)(F)F)cc1` [Compound 124], in test [1], the pKi is less than 6.00.
Still for that read-out and setting: in the case of `CC(C)[C@H]1c2ncc(C(=O)N[C@H]3c4ccccc4C[C@H]3O)cc2CN1Cc1ccc(C(F)(F)F)cc1` [Compound 125] it was less than 6.00; in that of `COC(=O)C(Cc1ccc(F)cc1)NC(=O)c1cnc2c(c1)CN(Cc1ccc(C(F)(F)F)cc1)[C@H]2C(C)C` (some centres unmarked) [Compound 126], less than 6.00.
Turning to `CC(C)[C@H]1c2ncc(C(=O)NC[C@H]3CC[C@H](C#N)CC3)cc2CN1Cc1ccc(C(F)(F)F)cc1` [Compound 129], the pKi in test [1] was 6.00 to 7.00.
Same read-out and setting: in the case of `CC(C)[C@H]1c2ncc(C(=O)N[C@H]3c4ccccc4C[C@H]3O)cc2CN1Cc1ccc(C(F)(F)F)cc1` [Compound 130] it was less than 6.00; in that of `CC(C)[C@H]1c2ncc(C(=O)N[C@H]3c4ccccc4C[C@H]3O)cc2CN1Cc1ccc(C(F)(F)F)cc1` [Compound 131], 6.00 to 7.00; in that of `CC(C)[C@H]1c2ncc(C(=O)N[C@H]3c4ccccc4C[C@H]3O)cc2CN1Cc1ccc(C(F)(F)F)cc1` [Compound 132], 6.00 to 7.00.
As for `COC(=O)C1(CNC(=O)c2cnc3c(c2)CN(Cc2ccc(C(F)(F)F)cc2)[C@H]3C(C)C)CCOCC1` [Compound 134], the pKi in test [1] is less than 6.00.
Still for that read-out and setting: in the case of `COC(=O)C(Cc1cc(=O)[nH]c2ccccc12)NC(=O)c1cnc2c(c1)CN(Cc1ccc(C(F)(F)F)cc1)[C@H]2C(C)C` (some centres unmarked) [Compound 135] it was less than 6.00.
Still for that read-out and setting: in the case of `CC(C)[C@H]1c2ncc(C(=O)NC(Cc3cc(=O)[nH]c4ccccc34)C(=O)O)cc2CN1Cc1ccc(C(F)(F)F)cc1` (some centres unmarked) [Compound 136] it was less than 6.00; in that of `COC(=O)CC1(CNC(=O)c2cnc3c(c2)CN(Cc2ccc(C(F)(F)F)cc2)[C@H]3C(C)C)CCCCC1` [Compound 137], less than 6.00.
Still for that read-out and setting: in the case of `CC(C)[C@H]1c2ncc(C(=O)NC(Cc3ccc(F)cc3)C(=O)O)cc2CN1Cc1ccc(C(F)(F)F)cc1` (some centres unmarked) [Compound 138] it was less than 6.00; in that of `CC(C)[C@H]1c2ncc(C(=O)NC(CC(=O)O)c3ccc(Br)cc3)cc2CN1Cc1ccc(C(F)(F)F)cc1` (some centres unmarked) [Compound 140], less than 6.00; in that of `CC(C)[C@H]1c2ncc(C(=O)NCC3(CC(=O)O)CCCCC3)cc2CN1Cc1ccc(C(F)(F)F)cc1` [Compound 145], less than 6.00.
Turning to `CC(C)[C@H]1c2ncc(C(=O)NCC3(C(=O)O)CCOCC3)cc2CN1Cc1ccc(C(F)(F)F)cc1` [Compound 146], in test [1], the pKi is less than 6.00.
Still for that read-out and setting: in the case of `CC(C)[C@H]1c2ncc(C(=O)NCc3ccc(C(=O)O)cc3)cc2CN1Cc1ccc(C(F)(F)F)cc1` [Compound 147, (S)-4-((7-isopropyl-6-(4-(trifluoromethyl)benzyl)-6,7-dihydro-5H-pyrrolo[3,4-b]pyridine-3-carboxamido)methyl)benzoic acid] it was 6.00 to 7.00; in that of `CC(C)[C@H]1c2ncc(C(=O)NC[C@H]3CC[C@H](C(=O)O)CC3)cc2CN1Cc1ccc(C(F)(F)F)cc1` [Compound 148], less than 6.00.
Still for that read-out and setting: in the case of `COC(=O)c1ccc(CNC(=O)c2cnc3c(c2)CN(Cc2ccc(C(F)(F)F)cc2)[C@H]3C(C)C)nc1` [Compound 150] it was less than 6.00; in that of `CC(C)[C@H]1c2ncc(C(=O)NCc3ccc(C(=O)O)cn3)cc2CN1Cc1ccc(C(F)(F)F)cc1` [Compound 151], 6.00 to 7.00; in that of `CC(C)[C@H]1c2ncc(C(=O)NCCC3CN(S(C)(=O)=O)C3)cc2CN1Cc1ccc(C(F)(F)F)cc1` [Compound 152], less than 6.00.
Consider `CC(C)[C@H]1c2ncc(C(=O)NCC3CN(S(C)(=O)=O)C3)cc2CN1Cc1ccc(C(F)(F)F)cc1` [Compound 153], for which the pKi in test [1] was less than 6.00.
On the same count and under the same terms, in the case of `CC(C)[C@H]1c2ncc(C(=O)NCC3CCN(S(C)(=O)=O)C3)cc2CN1Cc1ccc(C(F)(F)F)cc1` (some centres unmarked) [Compound 154] it was less than 6.00; in that of `CC(C)[C@H]1c2ncc(C(=O)NC[C@@H]3CCN(C(=O)OC(C)(C)C)C[C@H]3O)cc2CN1Cc1ccc(C(F)(F)F)cc1` [Compound 156], less than 6.00; in that of `CC(=O)O[C@@H]1CN(C(C)=O)CC[C@H]1CNC(=O)c1cnc2c(c1)CN(Cc1ccc(C(F)(F)F)cc1)[C@H]2C(C)C` [Compound 157], less than 6.00.
For `CC(C)[C@H]1c2ncc(C(=O)N[C@H](CO)c3ccc(C#N)cc3)cc2CN1Cc1ccc(C(F)(F)F)cc1` [Compound 158], the pKi in test [1] is 6.00 to 7.00.
On the same count and under the same terms, in the case of `CCS(=O)(=O)c1ccc(CNC(=O)c2cnc3c(c2)CN(Cc2ccc(C(F)(F)F)cc2)[C@H]3C(C)C)nn1` [Compound 159] it was greater than 7.00.

One may read the pIC50 as the IC50 on a negative log10 scale, so that one unit is a factor of ten. A word on the pKi: it is the Ki on a negative log10 scale, so that one unit is a factor of ten.
